Results reported in ChEMBL document CHEMBL3507680, “University of Dundee, Gates Library screen for HepG2 cell viability”.

Assay: Human HepG2 cell viability assay in 384 well format
Format: toxicity, cell-based
Set-up: dose 125 nL, time 70.5 hour; cytotoxicity at 70.5 h: concentration not given beside the values
Details: HepG2 cells, read-out: Inhibition

| SMILES | cytotoxicity at 70.5 h |
| --- | --- |
| COc1cc(C)ccc1C(=O)N1C[C@@H](CN(C)CCO)[C@@H](CO)C1 | 4.4% |
| O=C(c1cc2c(F)cccc2[nH]1)N1CCC(Nc2cccnn2)CC1 | 0.884% |
| COc1ccccc1C(C)(C)NC(=O)NCCC(=O)NC1CCCC1 | -12.5% |
| CCN(Cc1cnn(C)c1)S(=O)(=O)c1ccc(NC(=O)C(C)(C)C)cc1 | 2.92% |
| Cn1cc(C2SCC(=O)Nc3c2c(=O)[nH]n3C2CCOCC2)cn1 (configuration not stated) | 17.2% |
| CC1COCCN1Cc1nc(C(C)(C)C)no1 (configuration not stated) | -6.43% |
| CCC[C@@H]1CN(C(=O)Cc2sc(C)nc2C)C[C@H]1C(=O)O | -5.07% |
| CC(=O)Nc1ncc(S(=O)(=O)Nc2ccc(F)cc2)s1 | 30.4% |
| CC(C)OCCCN(Cc1ccncc1)Cc1cc(F)ccc1F | -4.35% |
| CC(=O)N1N=C(c2ccco2)OC1C(=O)N(C)CCc1ccccc1 (configuration not stated) | 20.4% |
| CN(C)CCN1CCC2(CCN(C(=O)c3cccnc3)CC2)C1=O | -4.08% |
| Cc1ccc(NC(=O)CN2CCCNC2=O)c(SC(F)(F)F)c1 | -7.48% |
| Cc1ncncc1C(=O)NCCN1CCC(C)CC1 | 5.52% |
| O=C(NC1CCCCC1)N1CCc2onc(COc3cccnc3)c2C1 | -6.55% |
| CC(C)Cn1cc(C(=O)NC2CCS(=O)(=O)C2)c2ccccc2c1=O (configuration not stated) | -13.3% |
| CCOc1ccccc1CN(CC)Cc1ccc(S(=O)(=O)NC)cc1 | -5.11% |
| CCc1nnc(CN2CCC(N3CCN(CC)C3=O)CC2)o1 | -16.5% |
| CCCN(CCC)c1nc(N)nc(-c2cc(Cl)ccc2OC)n1 | -2.85% |
| NC(=O)C(NC(=O)Cc1cnn(-c2ccccc2)n1)c1ccccc1 (configuration not stated) | -0.915% |
| O=C(O)c1ccc(Cc2cccc(F)c2)nc1 | -3.84% |
| COc1cc(N2CCC(c3nccn3Cc3cccnc3)CC2)ncn1 | -5.38% |
| CN(C)C(=O)c1cccc(NC(=O)CN2CCCCC2C2OCCO2)c1 (configuration not stated) | -5.7% |
| COCCn1/c(=N\C(=O)CN(C)S(C)(=O)=O)sc2cccc(F)c21 | 20.2% |

| SMILES | cytotoxicity at 70.5 h |
| --- | --- |
| O=C1CC2(CCN(S(=O)(=O)c3cccs3)C2)CN1c1cccc(F)c1 (configuration not stated) | -9.07% |
| Nc1cc(-c2cc(C(=O)O)ccc2Cl)c2cc[nH]c2n1 | -8.39% |
| COc1cccc(OC)c1C(C(=O)O)N(C)Cc1c(C)n[nH]c1C (configuration not stated) | -14.8% |
| CC(C)c1ccnc(N[C@H]2COC[C@@H]2N2CCCC2)n1 | -15.2% |
| CCOCC(O)CN1CCN(C(=O)Cc2ccc3c(c2)CCC3)CC1 (configuration not stated) | 53.8% |
| CC(NC(=O)NCC1(c2ccc(F)cc2)CC1)c1nncn1C (configuration not stated) | -1.68% |
| CNC(=O)C1(N2CCC[C@H]2C(=O)NC2CC2)CCCCC1 | -3.89% |
| O=C(NCCC(=O)N1CCCc2ccccc21)c1c(O)cc(F)cc1F | -9.76% |
| COc1cccc(S(=O)(=O)Cc2noc(CC(C)C)n2)c1 | -4.78% |
| Cc1ccc(NC(=O)CNc2cccc(C(N)=O)c2C)c(C)c1 | 33.2% |
| Cc1ccc(S(=O)(=O)NCc2[nH]ncc2Br)cc1F | -1.86% |
| Cn1cc(Br)cc1C(=O)NCC(C)(O)c1ccsc1 (configuration not stated) | -9.72% |
| CC(C)(C)OC(=O)N1CC(CC(=O)NCc2ccsc2)C1 | 7.8% |
| CC(=O)NC[C@H]1COCc2nc3c(C)cccc3n21 | 10.8% |
| CN(CCn1cnnc1)S(=O)(=O)c1ccc(C(F)(F)F)nc1 | -15.6% |
| O=c1c2ccccc2nc2n1CCC2O (configuration not stated) | -12.8% |
| O=C(c1ccc(S(=O)(=O)NCC(F)F)cc1)N1C[C@H]2CNC[C@H]2C1 | -1.24% |
| O=C(Cc1csc(-c2ccco2)n1)N1CCN(c2nccs2)CC1 | -5.89% |
| COc1c(C(=O)N2CCNC(=O)C2)cnc2c1c(C)nn2C | 21% |
| O=C(c1ccc2c(c1)[nH]c(=O)n2C1CCCC1)N1CCCSCC1 | -8.62% |
| Cc1cc(C)nc(N2CCC(OCCN3CCCCC3)C2)n1 (configuration not stated) | 8.57% |
| CN(c1ncc(S(N)(=O)=O)s1)C1CCc2ccccc21 (configuration not stated) | -1.27% |
| O=C(CCNCc1cccc2c1OCCCO2)NC1CCCC1 | 6.45% |

| SMILES | cytotoxicity at 70.5 h |
| --- | --- |
| COc1ccc(CNc2cnn(CC(F)F)c2)cc1 | -0.452% |
| CCNc1ncc(C(=O)NCCc2ccc(C)c(C)c2)cn1 | -4.37% |
| CC(C)CC(=O)N1CC[C@@H]2CN(CC(=O)N(C)C)S(=O)(=O)[C@@H]2CC1 | 1.05% |
| O=c1c2cnc(N3CCCCC3)nc2ccn1Cc1ccco1 | -7.45% |
| CN(C)CC1CN(Cc2ccsc2)Cc2nccn2C1 (configuration not stated) | -0.272% |
| Cc1ccc(NCc2cnc3n2CCN(c2ncccn2)CC3)nn1 | -2.11% |
| Cc1cc(N2CCCC2)nc(CNS(=O)(=O)Cc2ccccc2)n1 | -7.92% |
| C[C@@H]1CN(C(=O)c2ccncc2)CC[C@@]1(O)C1CCOCC1 | -1.23% |
| COCCN1C=NC2(CCC(C(=O)Nc3ccc(C)cc3)CC2)C1=O (configuration not stated) | -3.77% |
| COc1ncc(NCc2cc(C#N)cs2)cc1C(N)=O | -5.52% |
| Cc1cc(=O)[nH]c(=O)n1COCc1ccccc1 | -18.6% |
| CNC(=O)[C@H]1C[C@@H]2CN(C(=O)c3ccncc3)C[C@@H]2N1S(C)(=O)=O | 22.4% |
| Cc1noc(C2(C)CCN(C(=O)C(C)C)CC2)n1 | -5.14% |
| Cc1csc2c(=O)n3c(nc12)CCN(C(=O)c1ccccn1)CC3 | -0.0193% |
| Cn1cc(CNC2CCc3ncnn3C2)c(-c2ccncc2)n1 (configuration not stated) | -1.76% |
| O=C(Cn1cnc(NC(=O)c2ccccn2)n1)NCc1ccccc1 | -12.9% |
| CCc1nc2n(n1)CC(NCc1noc(-c3ccc(C)cc3)n1)CC2 (configuration not stated) | 0.731% |
| Cc1c(C(=O)N2CCC(c3nc(C)n4ccsc34)CC2)cnn1C | -4.61% |
| Cc1noc(C)c1C(=O)N1CCCN(Cc2cscn2)CC1 | -2.11% |
| O=C(c1ccccn1)N1C[C@@H]2CC[C@H](C1)N(C(=O)CCC(F)(F)F)C2 | -3.18% |
| Nc1cc(C(=O)N2CCCC3(C=Cc4ccccc4O3)CC2)ccn1 (configuration not stated) | -4.49% |
| Cc1ccc(C(=O)NCCCN(C(C)C)S(C)(=O)=O)c(=O)[nH]1 | -5.61% |
| COc1cn(-c2ccccc2)nc1C(=O)NCCN1CCCC(C)C1 (configuration not stated) | -7.85% |

| SMILES | cytotoxicity at 70.5 h |
| --- | --- |
| CCO[C@H]1CC[C@H]2[C@H]1OCCN2C(=O)COc1ccccc1 | -4.98% |
| Cc1ccc(CN2CCC3(CC2)CC(c2cccnc2)C(=O)N3C)o1 (configuration not stated) | -2.25% |
| CC(C)[C@H]1CN(Cc2ccccn2)C[C@@H]1NC(=O)CC1CCC1 | -3.45% |
| COc1c(NC(=O)N(C)CCOc2ccccc2)c(C)nn1C | 15.1% |
| c1ccc(-c2nc(CN3CCCC(Cn4cncn4)C3)cs2)cc1 (configuration not stated) | -6.56% |
| CCC(C)N(C)CCNC(=O)c1ccccc1OCCOC (configuration not stated) | -6.03% |
| N#Cc1nccnc1N1CCC(COCc2ccccc2)C1 (configuration not stated) | -4.27% |
| Cc1c(C2CCCN(C(=O)c3cccnc3)C2)n2c(nc1=O)CCC2 (configuration not stated) | -8.11% |
| CC(C)Nc1cc(N2CCC(n3cc(C4CC4)nn3)CC2)ncn1 | 23.9% |
| CCC(C)(CC)NC(=O)COc1nn(C)c2nc(C)cc(C)c12 | 14.2% |
| Cc1ccc(CCNc2nc(-c3ccncc3)nc3c2CCNCC3)o1 | 2.56% |
| Cc1cnn(C2CCCN(C(=O)Cn3ccc(=O)n(C)c3=O)C2)c1 (configuration not stated) | -1.04% |
| Cc1cccc(OCCC(=O)N2CCCN(CC(N)=O)CC2)c1C | -12% |
| CCOC(=O)c1cc2c(=O)[nH]c(=O)n(CCc3ccccc3)c2nc1C | -7.68% |
| Cc1nc(CN2CCN3C[C@H](Oc4cncnc4)C[C@H]3C2)cs1 | 5.24% |
| CC1CCCCN1Cc1nc(C2CC2)no1 (configuration not stated) | -4.41% |
| CC1(C)COCCN1C(=O)CCc1nc(-c2ccccn2)no1 | -18.1% |
| CCN1CCCC(C)(C(=O)NCCc2n[nH]c(=O)[nH]2)C1 (configuration not stated) | -3.84% |
| CC(C)N1CCC2(C=C(C(=O)NC3CC3)c3ccccc32)CC1 | -1.67% |
| CC(C)CN(Cc1ccsc1)C(=O)CCCn1cncn1 | -0.11% |
| Cc1cnn(C2CN(CC(=O)Nc3cccnc3)C2)c1 | -9.68% |
| O=C(CSc1ccccn1)N1CCN(CCO)[C@@H]2CS(=O)(=O)C[C@@H]21 | 2.3% |
| CCn1ccnc1CN1CCCC1c1c(C)nn(C)c1OC (configuration not stated) | -4.2% |

| SMILES | cytotoxicity at 70.5 h |
| --- | --- |
| CN(C)C(=O)CN1C[C@@H]2CC[C@H](C1)N(Cc1cccc(Cl)c1Cl)C2 | 7.51% |
| Cc1ccc(NCc2ccc(C#N)cc2)c(CN(C)C)c1 | 15.8% |
| CCCN1CCN(Cc2cccc(OCC(N)=O)c2)[C@H]2CS(=O)(=O)C[C@H]21 | 0.755% |
| CCCNC(=O)CN1CCOC(c2ccc(Br)cc2)C1 (configuration not stated) | -6.67% |
| c1cncc(CN2CCOC(c3ncn4c(C5CC5)cccc34)C2)c1 (configuration not stated) | -3.57% |
| CCN(c1ccsc1C(=O)N1CCSCC1)S(=O)(=O)c1ccccc1 | 6.6% |
| Cc1noc([C@@H]2CC[C@@H]3[C@@H](CCN3S(=O)(=O)c3ccccc3)O2)n1 | -14.9% |
| Cc1cc(NCc2ccc(O)cc2)n2nc(C)cc2n1 | -2.08% |
| Cc1ccc(OC2(C(=O)O)CCN(C/C=C/c3ccco3)CC2)c(C)n1 | -7.06% |
| Cc1nc2c(c(N3CC=CC3)n1)CCN(c1ncccc1C(N)=O)CC2 | -2.97% |
| COCc1nc(CN2CCC3(CCCO3)CCC2=O)no1 (configuration not stated) | -7.37% |
| CS(=O)(=O)NCc1nnc2n1CCN(Cc1cccs1)CC2 | -4.32% |
| CCN(C)C(=O)CCC(=O)c1cccs1 | -7.69% |
| COc1ccc(NC(=O)CCC2CCCN(Cc3ncon3)C2)c(C)c1 (configuration not stated) | -4.69% |
| COc1cc(N(C)CCC(O)c2ccccc2)ncn1 (configuration not stated) | -3.53% |
| COc1c(CNC2CCc3ccccc32)c(C(C)C)nn1C (configuration not stated) | -16.4% |
| COc1cccc(OC2CN(C(=O)C3CCCN(C(=O)N(C)C)C3)C2)c1 (configuration not stated) | 26.8% |
| COc1cnc(N2CCCN(c3ccc(F)cc3)CC2)nc1 | 8.19% |
| c1cnc(Nc2cc(CCC3CCCNC3)ccn2)cn1 (configuration not stated) | -4.31% |
| O=C(NCCCn1ccnc1)N1CCCC1c1ccsc1 (configuration not stated) | 24.9% |
